US6703205B2, “Apparatus and methods for correcting for variable velocity in microfluidic systems” (Caliper Technologies Corp., priority 1997, dated 2004)

What was measured:
HCV protease = HCV protease (Hepatitis C virus genotype 1a, UniProt P27958); assay: On-chip continuous flow HCV protease assay with FRET depsipeptide substrate; assay type: biochemical; conditions: 25 mM TRIS/HCL, pH 8.5, 0.1% Triton X-100, 10 mM DTT, 1M NDSB-195
From the text: HCV protease was used in a similar fluorogenic assay to LAR phosphatase; however, the peptide substrate incorporates a fluorescence resonance energy transfer (FRET) label (FIG. 18). […] The product fluorescence is proportional to the amount of cleaved substrate. The height of the product signal is proportional to the rate of enzyme turnover for that substrate concentration. The rate of fluorescence generation can be assessed as the fluorescence signal per mixing time of substrate and enzyme in the reaction channel. That mixing time is determined by the mean residence time of the fluorescent product in the reaction channel as it is electrokinetically pumped from the source of the mixing to the detector. Km was determined from the Michaelis Menton equation.
Due to the chemistry of this FRET quenching reaction, several considerations for accurate measurement of Km on the Labchip™ exist. […]
The chip was operational in that fluid was flowing for more than 12 hours of continuous electrokinetic pumping; however, the inhibition response was reproducible for seven hours. The total reagent volume consumed in the experiment can be calculated from the cross sectional area of the capillary and the total current. […] The average percent inhibition response was calculated for the first three inhibited and uninhibited signals at the start of each hour. […]

LAR = LAR (Homo sapiens, UniProt P10586); assay: Cuvette / spectrophotometer LAR phosphatase assay with dFMUP; assay type: biochemical; conditions: same running buffer
Description: A least squares fit of the three straight lines: no inhibitor, 35 μM and 69 μM peptide, was performed with the constraint that they meet at a common intercept on the y axis, 1/Vmax FIG. 15. […] The kcat is 4.74 μmol/min nmol LAR. The parallel analysis performed on the spectrophotometer in the same running buffer yielded a kcat of 6 μmol/min nmol LAR. […] The same analysis performed in a cuvette experiment with 1 mg/ml BSA in the running buffer gave 167 μM peptide.
In addition to the above kinetic studies, rate as a function of substrate concentration data was collected on three separate chips in order to consider interchip reproducibility for Km analyses. The combined data were used to prepare a double reciprocal plot. […] This is in excellent agreement with cuvette experiments performed on the spectrophotometer where dFMU was detected at 360 nm in a temperature controlled cuvette at 25_C.

Sequence of HCV protease (P27958 1027-1208): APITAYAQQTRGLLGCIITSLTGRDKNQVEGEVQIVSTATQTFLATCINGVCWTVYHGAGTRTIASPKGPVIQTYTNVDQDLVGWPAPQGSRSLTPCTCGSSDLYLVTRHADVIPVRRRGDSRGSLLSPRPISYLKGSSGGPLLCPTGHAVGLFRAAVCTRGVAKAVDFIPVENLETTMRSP
Sequence of LAR (P10586 30-1907, species assumed): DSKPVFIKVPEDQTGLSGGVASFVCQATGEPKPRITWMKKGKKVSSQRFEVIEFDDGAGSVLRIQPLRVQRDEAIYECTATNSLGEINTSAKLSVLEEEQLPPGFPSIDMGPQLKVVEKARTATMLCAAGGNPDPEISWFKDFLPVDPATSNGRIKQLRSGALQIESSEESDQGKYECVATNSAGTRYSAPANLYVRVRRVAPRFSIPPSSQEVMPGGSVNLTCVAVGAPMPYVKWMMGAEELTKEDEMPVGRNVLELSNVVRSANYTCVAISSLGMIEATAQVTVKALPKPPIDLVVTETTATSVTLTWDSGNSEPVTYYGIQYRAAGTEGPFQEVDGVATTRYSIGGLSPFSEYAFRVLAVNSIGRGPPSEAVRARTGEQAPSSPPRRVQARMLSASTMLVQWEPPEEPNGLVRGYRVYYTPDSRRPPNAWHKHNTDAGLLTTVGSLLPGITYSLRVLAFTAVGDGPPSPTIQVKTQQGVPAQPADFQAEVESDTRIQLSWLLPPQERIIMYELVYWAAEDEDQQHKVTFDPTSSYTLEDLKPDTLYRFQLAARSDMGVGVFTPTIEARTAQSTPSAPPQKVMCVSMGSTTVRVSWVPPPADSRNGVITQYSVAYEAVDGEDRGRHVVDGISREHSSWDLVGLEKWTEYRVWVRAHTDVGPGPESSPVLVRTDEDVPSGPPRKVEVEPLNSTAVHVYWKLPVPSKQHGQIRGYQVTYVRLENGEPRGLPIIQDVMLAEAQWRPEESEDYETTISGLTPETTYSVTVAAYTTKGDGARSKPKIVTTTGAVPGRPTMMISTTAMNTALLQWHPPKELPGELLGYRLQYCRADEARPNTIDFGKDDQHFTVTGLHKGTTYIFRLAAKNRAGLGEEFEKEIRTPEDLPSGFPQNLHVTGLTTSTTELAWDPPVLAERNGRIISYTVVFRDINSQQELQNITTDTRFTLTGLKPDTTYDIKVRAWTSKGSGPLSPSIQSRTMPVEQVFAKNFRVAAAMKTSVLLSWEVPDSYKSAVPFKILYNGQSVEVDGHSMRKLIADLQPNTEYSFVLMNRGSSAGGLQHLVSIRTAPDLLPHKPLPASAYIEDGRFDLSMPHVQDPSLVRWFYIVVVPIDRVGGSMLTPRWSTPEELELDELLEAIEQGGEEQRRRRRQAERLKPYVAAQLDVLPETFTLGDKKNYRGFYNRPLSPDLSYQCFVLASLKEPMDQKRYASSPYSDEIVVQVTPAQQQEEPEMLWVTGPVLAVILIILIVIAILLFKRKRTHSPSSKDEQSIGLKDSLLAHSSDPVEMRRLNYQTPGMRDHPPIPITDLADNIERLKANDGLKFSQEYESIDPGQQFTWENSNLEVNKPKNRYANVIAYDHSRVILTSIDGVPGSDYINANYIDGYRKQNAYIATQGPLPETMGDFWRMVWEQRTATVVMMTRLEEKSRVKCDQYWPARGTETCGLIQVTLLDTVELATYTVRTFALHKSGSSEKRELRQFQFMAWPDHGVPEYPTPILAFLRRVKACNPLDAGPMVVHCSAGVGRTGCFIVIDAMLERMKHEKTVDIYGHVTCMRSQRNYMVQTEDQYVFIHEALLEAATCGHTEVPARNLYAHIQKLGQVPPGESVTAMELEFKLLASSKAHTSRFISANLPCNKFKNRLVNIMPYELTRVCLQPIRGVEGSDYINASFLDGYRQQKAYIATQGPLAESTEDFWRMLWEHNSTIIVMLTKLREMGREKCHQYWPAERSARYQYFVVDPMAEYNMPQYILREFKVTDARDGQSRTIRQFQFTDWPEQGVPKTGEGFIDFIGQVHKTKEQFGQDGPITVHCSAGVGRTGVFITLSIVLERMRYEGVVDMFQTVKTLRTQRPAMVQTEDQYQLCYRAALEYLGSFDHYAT

| kcat (LAR) | SMILES | Vmax (HCV protease) | kcat (HCV protease) |
| --- | --- | --- | --- |
|  | C/C=C1\NC(=O)[C@H]2CSSCC/C=C/[C@H](CC(=O)N[C@H](C(C)C)C(=O)N2)OC(=O)[C@H](C(C)C)NC1=O [Depsipeptide] | 0.086 mM/s | 0.03 s⁻¹ |
| 6 μmol/min nmolLAR | Cc1cc(=O)oc2c(F)c(OP(=O)(O)O)c(F)cc12 [dFMUP] |  |  |
